Results taken from US6403604B1, “Nitrogen-based camptothecin derivatives” (California Pacific Medical Center, priority 2001, dated 2002).
Where two headings read alike, the source gives them in different places.

Experiments:
HCT116 cells = assay type: cell-based; conditions: 72 hours drug incubation, colonies counted after 7 days
Procedure: This example provides directions for growing cells and testing compounds of the invention for their effect on the growth of the cells.
Cell Colony Formation Assay
Four hundred cells (HCT 116, PC-3) or five hundred cells (VM46) were plated in 60 mm Petri dishes containing 2.7 ml of medium (modified McCoy's 5a medium) containing 10% fetal bovine serum and 100 units/ml penicillin and 100 mg/ml streptomycin. The cells were incubated in a CO2 incubator at 37° C. for 5 hours for attachment to the bottom of Petri dishes. Drugs were made fresh in medium at ten times the final concentration, and then 0.3 ml of this stock solution was added to the 2.7 ml of medium in the dish. The cells were then incubated with drugs for 72 hours at 37° C. At the end of the incubation the drug-containing media were decanted, the dishes were rinsed with 4 ml of Hank's Balance Salt Solution (HBSS), 5 ml of fresh medium was added, and the dishes were returned to the incubator for colony formation.
Values of ID50 (the drug concentration producing 50% inhibition of colony 5 formation) may be determined for each tested compound.

C3H/HeJ mice = assay: in vivo
Procedure: (§1) This example provides directions for performing in vivo toxicity tests of the compounds of the invention on C3H/HeJ mice.
(§2) Acute toxicities of the compounds of this invention are evaluated on C3H/HeJ mice (body weight 18-22 g). The MTD40 (maximum tolerated dose at day 40) values are determined by the standard procedure described by Gad and Chengelis (see, for example, “Acute Toxicology Testing,” 2nd Ed., Shayne O. Gad and Christopher P. Chengelis, pp. 186-195 (Academic Press).) In the consecutive type studies, 2 mice are dosed at low and moderate doses of 40 and 100 mg/kg. If no severe and irreversible toxicity (euthanasia is required) occurs at these doses, a new pair of animals is initiated at 180 mg/kg, which is 1.8 times higher than 100 mg/kg. Sequential dosages (about 3 doses on 3 pairs of animals, i.e. 2 mice for each drug dose) are increased by a factor of 1.8 until severe and irreversible toxicity (euthanasia is required) occurred. Then another pair of animals is initiated at the highest nonlethal dosage, and successive dosages were increased by a factor of 1.15. The result of this exercise is two dosages, one apparently nonlethal and the other lethal if severe and irreversible toxicity occurs and euthanasia is required, separated by a factor of 1.15. Six mice are dosed at each dosage. If no severe and irreversible toxicity occurs at the lower dosage and at least one with severe and irreversible toxicity occurs at the higher dose, then the lower dose is considered to be the MTD. The compounds of this invention are administered to C3H/HeJ mice by intraperitoneal injection. Drug toxicity is evaluated on mice checked daily for 45 days. The toxicity parameters reported will be the MTD40.

in vivo = conditions: C3H/HeJ, mouse, in vivo, ip
Procedure: as §1, §2

[1] = cited from earlier work
[2] = tested on: mouse leukemia L1210 system; conditions: cited from earlier work
[3] = maximum tolerated dose, C3H/HeJ mice, intraperitoneal injection

| Structure (SMILES) | Survival (%) of HCT116 (HCT116 cells; 1 nM) | Survival (%) of HCT116 (HCT116 cells; 10 nM) | Survival (%) of HCT116 (HCT116 cells; 100 nM) | MTD (C3H/HeJ mice; [3]) | MTD (C3H/HeJ mice; mouse, in vivo, ip) | MTD at 45 days (in vivo) | solubility in water [1] | antitumor activity [2] |
| --- | --- | --- | --- | --- | --- | --- | --- | --- |
| CC[C@@]1(OC(=O)CCN2CCN(c3cccc(OC)c3)CC2)C(=O)OCc2c1cc1n(c2=O)Cc2cc3ccccc3nc2-1 [001129 (8), Camptothecin-20S-ester of 3-[4-(3-methoxyphenyl)-1-piperazinyl]propionic Acid] | 73.26% | 0% | 0% | 150 mg/kg | – | – | – | – |
| CC[C@@]1(OC(=O)CCN2CCN(Cc3ccccc3)CC2)C(=O)OCc2c1cc1n(c2=O)Cc2cc3ccccc3nc2-1 [001204 (7), Camptothecin-20s-ester of 3-[(4-benzyl)-1-piperazinyl]propionic Acid] | 64.04% | 0% | 0% | – | – | – | – | – |
| CC[C@@]1(OC(=O)CCN2C(=O)c3cccc4c([N+](=O)[O-])ccc(c34)C2=O)C(=O)OCc2c1cc1n(c2=O)Cc2cc3ccccc3nc2-1 [001128 (4), Camptothecin-20S-Ester of 3-(4-Nitro-1,8-Naphthalimide)propionic Acid] | – | – | – | – | 150 mg/kg | – | – | – |
| CC[C@@]1(OC(=O)CCN2CCN(c3cccc(C(F)(F)F)c3)CC2)C(=O)OCc2c1cc1n(c2=O)Cc2cc3ccccc3nc2-1 [001101 (6), Camptothecin-20S-ester of 3-[4-(3-trifluoromethylphenyl)-1-piperazinyl]-propionic acid] | 100% | 0% | 0% | 150 mg/kg | – | – | – | – |
| CC[C@@]1(O)C(=O)OCc2c1cc1n(c2=O)Cc2cc3ccccc3nc2-1 [Camptothecin, (S)-4-ethyl-4-hydroxy-1H-pyrano-[3′,4′:6,7]indolizinol[1,2-b]quinoline-3,14(4H, 12H)-dione] | – | 73.72% | 0% | – | – | 12 mg/kg | essentially insoluble | antitumor activity |
| CCc1c2c(nc3ccc(OC(=O)N4CCC(N5CCCCC5)CC4)cc13)-c1cc3c(c(=O)n1C2)COC(=O)[C@]3(O)CC [Irinotecan, 7-ethyl-10[4-(1-piperidino)-1-piperidino]carbonyloxy CPT, reference compound] | – | – | 90.52% | – | – | – | – | – |
| CC[C@@]1(OC(=O)CCN2CCN(c3ccccc3Cl)CC2)C(=O)OCc2c1cc1n(c2=O)Cc2cc3ccccc3nc2-1 [010117 (11), Camptothecin-20S-ester of 3-[4-(2-chlorophenyl)-1-piperazinyl]propionic Acid] | 100% | 0% | 0% | – | – | – | – | – |
| CCC1(OC(=O)CCN2C(=O)C=CC2=O)C(=O)OCc2c1cc1n(c2=O)Cc2cc3ccccc3nc2-1 (stereo not drawn) [010104 (2), Camptothecin-20S-Ester of 3-Maleimidopropionic Acid] | – | 95.54% | 0% | – | – | – | – | – |
| CC[C@@]1(OC(=O)CCN2CCN(c3ccc(F)cc3)CC2)C(=O)OCc2c1cc1n(c2=O)Cc2cc3ccccc3nc2-1 [010124 (12), Camptothecin-20S-ester of 3-[4-(4-fluorophenyl)-1-piperazinyl]propionic Acid] | 100% | 0% | 0% | – | – | – | – | – |
| CC[C@@]1(OC(=O)CCN2CCN(c3ccc([N+](=O)[O-])cc3)CC2)C(=O)OCc2c1cc1n(c2=O)Cc2cc3ccccc3nc2-1 [010105 (9), Camptothecin-20S-ester of 3-[4-(4-nitrophenyl)-1-piperazinyl]propionic Acid] | 94.14% | 0% | 0% | – | – | – | – | – |
| CC[C@@]1(OC(=O)CCN2C(=O)c3ccccc3C2=O)C(=O)OCc2c1cc1n(c2=O)Cc2cc3ccccc3nc2-1 [000503 (1), Camptothecin-20S-Ester of 3-Phthalimidopropionic Acid] | – | 95.24% | 0% | 150 mg/kg | – | – | – | – |
